Structures are written as SMILES. Like-named read-outs stand apart in the source and are kept apart here.

The target in assay [1] is Aurora A (Homo sapiens (Human), UniProt O14965). Nature of the assay: ADP-Glo Kinase Assay with Aurora A Kinase Enzyme System. The settings on record: compounds tested from 1 μM. It is filed as biochemical. On the procedure:
To measure the effect of the compounds on the activity of AURKA, the IC50 of the compounds was determined with the ADP-Glo™ Kinase Assay (Promega, V9101) and the Aurora A Kinase Enzyme System (Promega, V1931). The assay was performed according to the manufacturer's instructions in a white 384-well plate format (Corning Assay Plate, LOT 32216024) by using 1.4 ng/μl Aurora A, […] and 0.1 μg/μl myelin basic protein (MBP) substrate in a total volume of 6 μl (transferred with Integra viaflo 96/384 handheld channel pipette). To generate a dose-response curve, a 3-fold serial dilution of the compounds was tested starting from 1 μM. The kinase was pre-incubated for 10 min at RT with the respective compound, before the substrate mix containing MBP and ATP was added. After 60 min at RT, 6 μl of the ADP-Glo reagent were added and incubated for another 60 min at RT. Afterwards 12 μl of the detection reagent were added and incubated for 30 min at RT before the luminescence was measured with an integration time of 500 ms by using a Filter Max F5 multi-mode microplate reader from Molecular Devices. As a negative control, the reaction was performed with MBP, ATP and Aurora A only. […]
(In general: ADP-Glo first removes unused ATP, then detects ADP through luciferase.)

The test system of assay [2] is NMP53^−/− cells. Nature of the assay: Cell viability assay (XTT-Assay). The conditions noted are these: 3 days treatment, read-out: cellular IC50. The class given is cell-based, murine. The method, then:
(A) Colony formation assay of a tumor cell line (NMP53^−/− cells), incubated for 5 days with compound 3a [N-(2-fluoro-5-((4-(1-methyl-1H-pyrazole-4-yl)benzyl)amino)phenyl)-3-(furan-2-yl)-propanamide] as indicated, fixed and stained with crystal violet. (B) Viability measurement (XTT assay) of a tumor cell line (NMP53^−/− cells) treated for 3 days with a series of concentrations of compound 3a according to this invention. […] (C) Determination of the percentage of cell death (by means of propidium iodide staining) of a tumor cell line (NMP53^−/− cells) treated with compound 3a for 5 days.
The cell viability assay (XTT-Assay) was used to determine cellular IC50 values. 1 000 cells were seeded per 96 well and treated with a 2-fold dilution series of the compounds on the next day. As a control, the cells were treated with DMSO according to the highest compound concentration (negative control) or 1.5 mM chloroquine (positive control). 3 days after treatment with the respective compound, or DMSO/chloroquine as a control, the XTT Assay was conducted according to the manufacturer's instructions (Invitrogen, X6493). The absorbance was measured with the Infinite M Plex plate reader (Tecan) at 450 nm. The IC50 was calculated by variable slope nonlinear regression utilizing GraphPad Prism 8.4.0 software (GraphPad Software, La Jolla, CA), with the DMSO treated cells resembling 100% cell viability and the chloroquine treated cells resembling o % cell viability.
(In general: Tetrazolium assays rely on reduction of a dye to a coloured formazan, in cell work by metabolically active cells.)

Assay [3] concerns 320 wildtype kinases. Kind of assay: Kinome screen with 320 wildtype kinases. It is filed as biochemical.
For assay [4], the target named is interaction of AURKA with TPX2 (Homo sapiens (Human), UniProt O14965). Kind of assay: Co-immunoprecipitation of FLAG-AURKA and western blot for TPX2. It is filed as cell-based, murine. The conditions noted are these: Co-IP with anti-FLAG, NMP53^−/− cells synchronized with nocodazole. On the procedure:
Tumor cells (NMP53^−/− cells) expressing a doxycycline-inducible FLAG-AURKA construct were kept on doxycycline for 24 hours, synchronized with 50 ng/ml nocodazole for 6 hours and treated with two of the developed compounds or DMSO as a control. In particular, the top “AURKA-Ligand” refers to compound 3a [N-(2-fluoro-5-((4-(1-methyl-1H-pyrazole-4-yl)benzyl)amino)phenyl)-3-(furan-2-yl),propanamide], and the bottom “AURKA-Ligand” refers to compound 2c [N-(5-((4-(1H-pyrazole-4-yl)benzyl)amino)-2-fluorophenyl)-3-(furan-2-yl)propanamide]. Co-immunoprecipitations (Co-IP) were carried out with an antibody against FLAG. A DMSO-treated sample without FLAG-AURKA induction served as a control. The AURKA and TPX2 levels of the Co-IP samples and their input were determined by western blotting.
Tumor cells (NMP53/cells) expressing a doxycycline-inducible FLAG-AURKA construct were kept on doxycycline for 24 hours, synchronized with 50 ng/ml nocodazole for 6 hours and treated with two of the developed compounds of this invention (3a and 2c), or DMSO as a control. Then, co-immunoprecipitations (Co-IP) were carried out with an antibody against FLAG. A DMSO-treated sample without FLAG-AURKA induction served as a control. The AURKA and TPX2 levels of the Co-IP samples and their input were determined by western blotting.

The subject of assay [5] is NMP53^−/− cells. Kind of assay: Colony formation assay on NMP53^−/− cells. The class given is cell-based, murine. The conditions noted are these: for minimal effective concentration: Mus musculus, 120 h, 5 days, read-out: EC (NMP53^−/−). The text has this: To evaluate the effect of small molecules equipped with R-spine interacting moieties, the inventors screened a focused library of proprietary p38a MAP-Kinase inhibitors which were equipped with R-spine interacting pharmacophores. To this end, the inventors utilized a screening system as developed in Dauch et al.^2 The screening system is based on colony formation assays of cell lines isolated from Nras-driven, Trp53-deficient murine HCCs, whose development is dependent on MYC (NMP53^−/− cells), as well as Nras-driven, Cdkn2a^ARF-deficient murine HCCs, which develop independently of MYC (NMCdkn2a^ARF−/− cells). Importantly, NMP53^−/− cells are sensitive to AURKA inhibitors, which induce a conformational shift in AURKA, whereas NMCdkn2a^ARF−/− are not sensitive to such compounds.
For Colony Formation Assays, cells were seeded at a density of 50 000 cells per 6 well and next day treated with a 2-fold dilution series of the indicated compounds or the highest corresponding DMSO concentration as control. After 5 days, the cells were fixed with a 10% formaldehyde solution for 30 min, washed once with water, stained with a 0.5% crystal violet solution for 30 min and washed twice with water. The compounds effective concentration (EC) was determined according to the lowest concentration in the dilution series, that inhibited cell growth substantially. The resulting benzamide containing hit structure 1, with a twofold selectivity towards NMP53^−/− cells (effective concentration on NMP53^−/− cells (EC): 2 μM, EC on Cdkn2a^ARF−/−: 4 μM, FIG. 1), served as the inventors' starting point for further compound development.

[6] abbreviates: colony formation assay, lowest concentration of 2-fold dilution series that inhibited cell growth substantially.

Chain of interaction of AURKA with TPX2 (O14965 whole entry, looked up): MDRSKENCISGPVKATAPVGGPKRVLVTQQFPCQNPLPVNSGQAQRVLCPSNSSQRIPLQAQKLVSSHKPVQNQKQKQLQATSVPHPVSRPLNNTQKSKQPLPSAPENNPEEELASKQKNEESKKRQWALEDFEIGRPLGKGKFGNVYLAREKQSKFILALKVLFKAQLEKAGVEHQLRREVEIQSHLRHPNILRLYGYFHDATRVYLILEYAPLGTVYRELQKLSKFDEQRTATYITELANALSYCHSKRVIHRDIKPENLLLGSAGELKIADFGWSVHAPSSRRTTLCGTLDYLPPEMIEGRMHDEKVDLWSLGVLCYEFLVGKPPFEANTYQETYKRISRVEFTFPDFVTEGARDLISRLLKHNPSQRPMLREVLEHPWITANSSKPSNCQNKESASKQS
Chain of interaction of AURKA with TPX2 (A2APB8 whole entry partner, looked up): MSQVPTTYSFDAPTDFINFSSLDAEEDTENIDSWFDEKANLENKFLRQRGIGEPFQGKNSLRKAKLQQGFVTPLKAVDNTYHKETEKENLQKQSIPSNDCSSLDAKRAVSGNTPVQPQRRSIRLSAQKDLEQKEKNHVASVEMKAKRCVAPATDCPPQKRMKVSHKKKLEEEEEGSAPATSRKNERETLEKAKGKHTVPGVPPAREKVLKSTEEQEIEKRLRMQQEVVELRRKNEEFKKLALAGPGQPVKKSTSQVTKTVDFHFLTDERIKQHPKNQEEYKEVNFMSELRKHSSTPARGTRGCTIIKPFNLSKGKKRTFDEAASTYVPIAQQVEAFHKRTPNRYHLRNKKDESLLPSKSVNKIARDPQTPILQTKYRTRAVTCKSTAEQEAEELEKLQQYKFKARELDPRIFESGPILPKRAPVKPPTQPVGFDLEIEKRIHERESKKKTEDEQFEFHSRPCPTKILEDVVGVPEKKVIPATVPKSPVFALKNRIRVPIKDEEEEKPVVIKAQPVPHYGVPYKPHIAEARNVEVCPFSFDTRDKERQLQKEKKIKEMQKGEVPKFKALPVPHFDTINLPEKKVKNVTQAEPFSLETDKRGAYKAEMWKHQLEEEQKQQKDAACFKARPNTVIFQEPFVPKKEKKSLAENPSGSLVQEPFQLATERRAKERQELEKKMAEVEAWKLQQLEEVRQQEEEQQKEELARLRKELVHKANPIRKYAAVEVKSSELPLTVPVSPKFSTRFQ
Chain of Aurora A (O14965 whole entry): as the sequence (O14965 whole entry, looked up) above

A word on the IC50: it is the concentration that inhibits the measured activity by half. Consider `O=C(CCc1ccco1)Nc1cc(NCc2ccc(-c3cn[nH]c3)cc2)ccc1F` [Compound 2c, N-(5-((4-(1H-pyrazole-4-yl)benzyl)amino)-2-fluorophenyl)-3-(furan-2-yl)propanamide], for which the IC50 is 259 nM in assay [1] (read-out: IC50 (AURKA)) and 60 nM in assay [2] (Mus musculus, 72 h). Also, in assay [3] (100 nM), the “off-targets in kinome screen” value is on record as “no off-targets”. The same compound registered a selectivity score in assay [3] (500 nM) of 0.019. In assay [4], the “interaction of AURKA with TPX2” value is recorded as “largely enhance”. Moreover, the “higher cellular activity compared to the initial hit 1” value in assay [5] (EC on NMP53^−/− cells) is reported as “up to 16 fold”. Besides, the “increased efficacy compared to compound 2a” value in assay [5] (EC on NMP53^−/− cells) was found to be 4 fold. Moreover, the minimal effective concentration in assay [5] (setting [6]) and in assay [5] (colony formation assay) was 0.125 µM each time. Also, the “selectivity for NMP53^−/− cells” value in assay [5] (NMP53^−/− versus NMCdkn2a^ARF−/− cells, colony formation assay) is “up to 8 fold”.
As to `Cn1cc(-c2ccc(CNc3ccc(F)c(NC(=O)CCc4ccco4)c3)cc2)cn1` [Compound 3a, N-(2-fluoro-5-((4-(1-methyl-1H-pyrazole-4-yl)benzyl)amino)phenyl)-3-(furan-2-yl)propanamide], in assay [1], the “IC50 (AURKA)” value was “no kinase inhibition”. Further, the IC50 in assay [2] is 13 nM; in assay [2] (Mus musculus, 72 h), 14 nM. The “inhibition in kinome screen” value in assay [3] (320 wildtype kinases) is “overall no inhibition”. Further, in assay [4], the “interaction of AURKA with TPX2” value is reported as “largely enhance”. Further, the minimal effective concentration in assay [5] (setting [6]) and in assay [5] (colony formation assay) was 0.031 µM throughout.

For the origin of these results see patent US20240101538A1, “PROTEIN-PROTEIN INTERACTION MODULATORS OF AURORA KINASE A AND THEIR USE IN THE PREVENTION AND/OR TREATMENT OF CANCER” (EBERHARD KARLS UNIVERSITÄT TÜBINGEN, priority 2020, published 2024).
